The record followed here is patent publication US5442077A, “Benzo[B]Furancarboxamide derivatives, process for the preparation of same and use thereof for improving hypermotility” (Sanwa Kagaku Kenkyusho Co., Ltd., priority 1993, dated 1995).

The test system of series [1] is dopamine D2 receptor. The series is described as follows: Anti-Dopamine Action (general symptoms including catalepsy and blepharoptosis). It is filed as in vivo, rat. How it is done: The compound was orally administered to rats in amount of 100, 300 or 1000 mg/kg to observe for 2 days general symptoms including catalepsy and blepharoptosis due to antagonistic action of the compound to dopamine D2 receptor.

Series [2] concerns the target T1, 5-HT4 receptor (Rattus norvegicus, UniProt Q62758).
T1 construct: muscular sample of mucous membrane in esophgus exentrated from a rat; from tissue; host or cells: rat oesophagus, muscularis mucosae
Put plainly: Agonisting Action to 5-HT4 Receptor (relaxation of carbachol-treated oesophageal mucous membrane muscle sample). The series is classed as cell-based. Conditions: negative logarithm of concentration causing 50% relaxation, rat esophagus.

Series [3] deals with digestive tract. The series is described as follows: Action on Hypermotility of Digestive Tract (acceleration of gastric emptying, phenol red). The series is classed as in vivo. Conditions: Rattus norvegicus, oral, rats fasted for 24 hours, phenol red 30 min after administration. How it is done: The compounds obtained by Examples 1, 2 and 5 as well as exemplar known compounds (Metocloplamide and Cysapride) were selected as Test Compounds, and an action of the compounds for accelerating gastric emptying was checked in accordance with the method described by Yokochi et al [" (which can be translated as --Bulletin of Pharmacological Society of Japan--)", Vol. 92, page 297 (1988 )].
Namely, the test compound was orally administered in an amount of 0.3, 1.0, 3.0 or 10 mg/kg to rats fasted for 24 hours, and after 30 minutes from the administration, a coloring matter in a constant amount (phenol red, 100 μg) was also orally administered.
Rate of gastric emptying=100-(B/A)×100
A: Dosing amount of coloring matter, and
B: Remaining amount of coloring matter.
Rate of acceleration=(C-D)×100
C: Rate of gastric emptying in Test Group, and
D: Rate of gastric emptying in Control Group given no Test Compound.

Where [4] appears, read: oral, rats, observed for 2 days.

Molecules are shown by their SMILES. Structures can show the parent of a compound that is named as a salt.

T1 sequence (Q62758 whole entry): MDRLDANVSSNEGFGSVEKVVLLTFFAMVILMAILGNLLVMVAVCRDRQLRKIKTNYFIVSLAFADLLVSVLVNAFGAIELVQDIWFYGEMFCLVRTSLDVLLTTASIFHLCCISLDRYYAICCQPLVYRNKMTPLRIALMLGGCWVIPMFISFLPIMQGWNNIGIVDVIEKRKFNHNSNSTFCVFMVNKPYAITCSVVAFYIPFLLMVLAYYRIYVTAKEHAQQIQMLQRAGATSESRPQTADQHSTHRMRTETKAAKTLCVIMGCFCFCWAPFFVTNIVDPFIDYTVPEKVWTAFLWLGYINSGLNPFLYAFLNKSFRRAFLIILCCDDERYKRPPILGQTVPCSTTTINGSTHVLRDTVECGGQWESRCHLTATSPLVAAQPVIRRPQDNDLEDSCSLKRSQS

With `Nc1c(Cl)cc(C(=O)NCCC23CCCN2CCC3)c2c1CCO2` [Example 1, 4-Amino-N-[2-(1-azabicyclo[3.3.0]octan-5-yl)ethyl]-5-chloro-2,3-dihydrobenzo[b]furan-7-carboxamide], the “Influence on central nervous system, 1000 mg/kg” value (from here on “Influence … 1000 mg/kg”) in series [1] (setting [4]) was “-”. Besides, in series [2], it took 316 nM to reach a half-maximal effect (EC50). The ED50 (in general, the dose that gives a 50% effect, or the effect in half of the subjects) in series [3] worked out at 2.15 mg/kg.
As for `CC1Cc2c(N)ccc(C(=O)NCCC34CCCN3CCC4)c2O1` (centres unmarked) [Example 10, 4-Amino-N-[2-(1-azabicyclo[3.3.0]octan-5-yl)ethyl]-2-methyl-2,3-dihydrobenzo[b]furan-7-carboxamide], the EC50 (as a rule, the concentration giving half of the maximal effect) in series [2] was 1000 nM.
Consider `CC1Cc2c(N)c(Cl)cc(C(=O)NCCC34CCCN3CCC4)c2O1` (single isomer, unassigned; (-)) [Example 3, (-)-4-Amino-N-[2-(1-azabicyclo[3.3.0]octan-5-yl)ethyl]-5-chloro-2-methyl-2,3-dihydrobenzo[b]furan-7-carboxamide . 1/2 fumarate], for which, in series [2], the response was half-maximal at 20 nM (EC50).
`CC1Cc2c(N)c(Cl)cc(C(=O)NCCC34CCCN3CCC4)c2O1` (single isomer, unassigned; (+)) [Example 4, (+)-4-Amino-N-[2-(1-azabicyclo[3.3.0]octan-5-yl)ethyl]-5-chloro-2-methyl-2,3-dihydrobenzo[b]furan-7-carboxamide . 1/2 fumarate]: the EC50 in series [2] was 50.1 nM.
Still for that read-out and setting: next, `CC1Cc2cc(Cl)cc(C(=O)NCCC34CCCN3CCC4)c2O1` (centres unmarked) [Example 9, N-[2-(1-Azabicyclo[3.3.0]octan-5-yl)ethyl]-5-chloro-2-methyl-2,3-dihydrobenzo[b]furan-7-carboxamide]: 100 nM.
The same measure, in the same setting: the same measure for `CC(=O)Nc1c(Cl)cc(C(=O)NCCC23CCCN2CCC3)c2c1CC(C)O2` (centres unmarked) [Example 8, 4-Acetylamino-N-[2-(1-azabicyclo[3.3.0]octan-5-yl)ethyl]-5-chloro-2-methyl-2,3-dihydrobenzo[b]furan-7-carboxamide]: 316 nM.
Same read-out and setting: next, `CCC1Cc2c(N)c(Cl)cc(C(=O)NCCC34CCCN3CCC4)c2O1` (centres unmarked) [Example 7, 4-Amino-N-[2-(1-azabicyclo[3.3.0]octan-5-yl)ethyl]-5-chloro-2-ethyl-2,3-dihydrobenzo[b]furan-7-carboxamide]: 20 nM.
Molecule `CC1Cc2c(N)c(Cl)cc(C(=O)NCCC34CCCN3CCC4)c2O1` (centres unmarked) [2 (*), 4-Amino-N-[2-(1-azabicyclo[3.3.0]octan-5-yl)ethyl]-5-chloro-2-methyl-2,3-dihydrobenzo[b]furan-7-carboxamide] showed an EC50 in series [2] of 39.8 nM.
Consider `COc1cc(N)c(Cl)cc1C(=O)NC1CCN(CCCOc2ccc(F)cc2)CC1OC` (centres unmarked) [Cisapride, reference compound], for which, in series [1] (setting [4]), the “Influence … 1000 mg/kg” value is “++”. This molecule had a half-maximal effective concentration (EC50) in series [2] of 39.8 nM. Moreover, in series [3], the ED50 is 6.37 mg/kg.
For `CC1(C)Cc2c(N)c(Cl)cc(C(=O)NCCC34CCCN3CCC4)c2O1` [Example 5, 4-Amino-N-[2-(1-azabicyclo[3.3.0]octan-5-yl)ethyl]-5-chloro-2,2-dimethyl-2,3-dihydrobenzo[b]furan-7-carboxamide], in that order: “-”, 316 nM and 1.5 mg/kg.
For `CCN(CC)CCNC(=O)c1cc(Cl)c(N)cc1OC` [Metoclopramide, 4-amino-5-chloro-N-[(2-diethylamino)ethyl]-2-methoxybenzamide, reference compound], the “Influence on central nervous system, 100 mg/kg” value in series [1] (rat, in vivo, po) is “++”. Also, the ED50 in series [3] was determined as 16.3 mg/kg.
Turning to `CC1Cc2c(N)c(Cl)cc(C(=O)NCCC34CCCN3CCC4)c2O1` (centres unmarked) [Example 2, 4-Amino-N-[2-(1-azabicyclo[3.3.0]octan-5-yl)ethyl]-5-chloro-2-methyl-2,3-dihydrobenzo[b]furan-7-carboxamide], in series [1] (setting [4]), the “Influence on central nervous system, 100 mg/kg” value is “-” and the “Influence … 1000 mg/kg” value was “-”. The “Influence on central nervous system, 300 mg/kg” value in series [1] (oral, rats, 300 mg/kg, observed for 2 days) is on record as “-”. For the same molecule, in series [3], the 50% effect level (ED50) was put at a dose of 1.97 mg/kg.
Take `CC1Oc2c(C(=O)NCCC34CCCN3CCC4)cc(Cl)c(N)c2C1C` (centres unmarked) [Example 6, 4-Amino-N-[2-(1-azabicyclo[3.3.0]octan-5-yl)ethyl]-5-chloro-2,3-dimethyl-2,3-dihydrobenzo[b]furan-7-carboxamide]: the EC50 in series [2] was 12.6 nM.
